# Results published in patent US9447095B2, “Pyrimidine derivatives as phosphodiesterase 10 inhibitors (PDE-10)” (PALOBIOFARMA S.L., priority 2013, dated 2016).
# pIC50: −log10 of the molar value.
# Target: Phosphodiesterase 10A (PDE10A) (Homo sapiens (Human), UniProt Q9Y233)
# Assay: Phosphodiesterase 10A (PDE10A) activity inhibition test ([3H]cAMP scintillation proximity assay)
# Type: biochemical
# Settings: dose-response, 1:10 dilutions from 100 μM to 1 nM; [3H]cAMP SPA, 20 minutes at 30° C.; read-out: IC50 PDE10
# Experimental: The “analysis of the activity of the enzyme Phosphodiesterase [^3H] cAMP SPA” (Perkin Elmer #7090 TRKQ) kit was used for the study of Phosphodiesterase 10. The kit contains: • Yttrium scintillation proximity assay (SPA) in beads: yttrium silicate in microspheres resuspended pellet in MiliQ water containing 18 mM zinc sulfate. • 10×PDE assay buffer: 500 mM Tris/HCl; 83 mM MgCl2; 17 mM EGTA; pH 7.5. • Tracer [^3H] cAMP: substrate for enzymatic reaction.
# The test is based on the preferential binding of linear nucleotides to the SPA beads in the presence of zinc sulfate, with respect to the binding of cyclic nucleotides, which is almost imperceptible.
# The binding of the radioactively labeled product to the beads brings the isotope to a proximity enough to allow the radioactive tritium radiation to excite the flashing part in the bead. Any independent radiolabel is not sufficiently close to the flashing part to allow the transfer of energy, so that no signal is generated. In addition, as the cyclic substrate is not effectively linked with the bead, the generated background signal is very low.
# The binding of the linear nucleotides with the bead is based on a complex chelation mechanism. Zinc sulfate in the microsphere solution improves the binding between the bead and […].
# Phosphodiesterase 10A (PDE10A) Activity Inhibition Test
# The test is performed in 96-well Flexiplates (Perkin Elmer #1450-401) with duplicates for each sample. Positive and negative controls are also required in each analyzed plate to evaluate the activity of the enzyme.
# The inhibition values for each of the compounds are measured in duplicate at a concentration of 10 μM and the plate is incubated for 20 minutes at 30° C. and then 50 μL of the kit beads are then added “Phosphodiesterase SPA beads” (Perkin-Elmer #RPNQ0150).
# The plate is stirred for 1 hour at room temperature. Then beads are allowed to stand for one hour before reading the activity in a beta scintillation counter.
# To build a dose-response curve, in order to calculate the potency of inhibition (expressed as IC50) for PDE10A, a series of 1:10 dilutions in test in 1× buffer from 100 μM to 1 nM for each compound were carried out.
# Chain of Phosphodiesterase 10A (PDE10A) (Q9Y233 whole entry, species assumed): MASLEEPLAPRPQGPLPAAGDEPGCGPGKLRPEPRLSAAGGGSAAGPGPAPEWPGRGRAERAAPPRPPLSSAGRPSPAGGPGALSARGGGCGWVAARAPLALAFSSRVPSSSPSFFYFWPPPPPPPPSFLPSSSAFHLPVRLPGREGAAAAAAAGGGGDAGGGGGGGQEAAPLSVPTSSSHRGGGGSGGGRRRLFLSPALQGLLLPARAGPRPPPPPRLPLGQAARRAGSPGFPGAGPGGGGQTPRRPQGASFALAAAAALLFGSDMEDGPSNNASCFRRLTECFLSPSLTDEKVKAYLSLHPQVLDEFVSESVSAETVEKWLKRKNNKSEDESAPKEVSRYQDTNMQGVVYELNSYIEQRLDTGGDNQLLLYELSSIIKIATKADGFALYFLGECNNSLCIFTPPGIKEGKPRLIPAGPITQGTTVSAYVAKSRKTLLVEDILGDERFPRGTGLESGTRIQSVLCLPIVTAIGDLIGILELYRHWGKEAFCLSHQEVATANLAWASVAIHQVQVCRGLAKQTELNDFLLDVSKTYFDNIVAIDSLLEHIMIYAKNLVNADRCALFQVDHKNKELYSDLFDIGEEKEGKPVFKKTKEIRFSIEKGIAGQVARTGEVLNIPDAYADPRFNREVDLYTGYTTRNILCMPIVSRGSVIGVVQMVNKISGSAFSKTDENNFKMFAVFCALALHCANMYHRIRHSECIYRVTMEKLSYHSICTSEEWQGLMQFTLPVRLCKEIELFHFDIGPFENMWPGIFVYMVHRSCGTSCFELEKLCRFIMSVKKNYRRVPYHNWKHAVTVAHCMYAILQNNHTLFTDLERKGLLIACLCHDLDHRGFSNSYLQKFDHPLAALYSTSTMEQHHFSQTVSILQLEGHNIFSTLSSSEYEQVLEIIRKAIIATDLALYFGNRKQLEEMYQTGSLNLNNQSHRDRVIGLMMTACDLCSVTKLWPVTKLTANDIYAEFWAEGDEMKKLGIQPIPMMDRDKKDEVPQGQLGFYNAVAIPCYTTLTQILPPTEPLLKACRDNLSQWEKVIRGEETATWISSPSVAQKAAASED
row,SMILES,pIC50
1,"Nc1nc(-n2ncc3ccccc32)nc(NC2CCOCC2)c1Br [Example 7, 5-bromo-N^4-(tetrahydro-2H-pyran-4-yl)-2-(1H-indazol-1-yl)pyrimidine-4,6-diamine]",7.66
2,"C#CCNc1nc(-n2cc(-c3ccccn3)cn2)nc(N)c1Br [Example 17, 5-bromo-N^4-(prop-2-ynyl)-2-[4-(pyridin-2-yl)-1H-pyrazol-1-yl]pyrimidine-4,6-diamine]",7.74
3,"Nc1nc(-n2cc(-c3ccc4ccccc4n3)cn2)nc(NC2CCOCC2)c1Br [Example 23, 5-bromo-N^4-(tetrahydro-2H-pyran-4-yl)-2-[4-(quinolin-2-yl)-1H-pyrazol-1-yl]pyrimidine-4,6-diamine]",8.02
4,"C#CCNc1nc(-n2cc(-c3cnccn3)cn2)nc(N)c1Br [Example 30, 5-bromo-N^4-(prop-2-ynyl)-2-[4-(pyrazin-2-yl)-1H-pyrazol-1-yl]pyrimidine-4,6-diamine]",8.35
5,"C#CCNc1nc(-n2cncn2)nc(N)c1Br [Example 42, 5-bromo-N^4-(prop-2-ynyl)-2-(1H-1,2,4-triazol-1-yl)pyrimidine-4,6-diamine]",8.24
6,"Nc1nc(-n2cncn2)nc(NCc2cncs2)c1Br [Example 45, 5-bromo-N^4-[(thiazol-5-yl)methyl]-2-(1H-1,2,4-triazol-1-yl)pyrimidine-4,6-diamine]",8.89
7,"Nc1nc(-n2cncn2)nc(NCC2CC2)c1Br [Example 46, 5-bromo-N^4-(cyclopropylmethyl)-2-(1H-1,2,4-triazol-1-yl)pyrimidine-4,6-diamine]",8.47
8,"Nc1nc(-n2cc(C(=O)O)cn2)nc(NCC2CC2)c1Br [Example 51, 1-[4-amino-5-bromo-6-(cyclopropylmethylamino)pyrimidin-2-yl]-1H-pyrazole-4-carboxylic acid]",7.52
9,"CCNc1nc(-n2cc(C(=O)N3CCOCC3)cn2)nc(N)c1Br [Example 53, {1-[4-amino-5-bromo-6-(ethylamino)pyrimidin-2-yl]-1H-pyrazole-4-yl}(morpholino)methanone]",8.09
10,"Nc1nc(-n2cc(-c3ccccn3)cn2)nc(-n2cccn2)c1Br [Example 55, 5-bromo-6-(1H-pyrazol-1-yl)-2-[4-(pyridin-2-yl)-1H-pyrazol-1-yl]pyrimidin-4-amine]",7.04
11,"CCNc1nc(-n2cc(-c3ccncn3)cn2)nc(N)c1Br [Example 61, 5-bromo-N^4-ethyl-2-[4-(pyrimidin-4-yl)-1H-pyrazol-1-yl]pyrimidine-4,6-diamine]",7.43
12,"CCNc1nc(-n2ncc3ccccc32)nc(N)c1Cl [Example 64, 5-chloro-N^4-ethyl-2-(1H-indazol-1-yl)pyrimidine-4,6-diamine]",7.91
13,"C#CCNc1nc(-n2ncc3ccccc32)nc(NCC)c1Br [Example 66, 5-bromo-N^4-ethyl-2-(1H-indazol-1-yl)-N^6-(prop-2-ynyl)pyrimidine-4,6-diamine]",6.92
14,"CCNc1nc(-n2cc(-c3ccncn3)cn2)nc(NCc2nc3ccccc3[nH]2)c1Br [Example 77, N^4-[(1H-benzo[d]imidazol-2-yl)methyl]-5-bromo-N^6-ethyl-2-[4-(pyrimidin-4-yl)-1H-pyrazol-1-yl]pyrimidine-4,6-diamine]",7.53

# Second part, the compound after the results:
row,pIC50,SMILES
1,7.28,"Nc1nc(-n2ncc3ccccc32)nc(NCC2CC2)c1Br [Example 1, 5-bromo-N^4-(cyclopropylmethyl)-2-(1H-indazol-1-yl)pyrimidine-4,6-diamine]"
2,7.66,"CCNc1nc(-n2ncc3ccccc32)nc(N)c1Br [Example 2, 5-bromo-N^4-ethyl-2-(1H-indazol-1-yl)pyrimidine-4,6-diamine]"
3,7.39,"C#CCNc1nc(-n2ncc3ccccc32)nc(N)c1Br [Example 3, 5-bromo-2-(1H-indazol-1-yl)-N^4-(prop-2-ynyl)pyrimidine-4,6-diamine]"
4,7.73,"Cc1nc(CNc2nc(-n3ncc4ccccc43)nc(N)c2Br)cs1 [Example 6, 5-bromo-2-(1H-indazol-1-yl)-N^4-[(2-methylthiazol-4-yl)methyl]pyrimidine-4,6-diamine]"
5,7.13,"Cn1cc(CNc2nc(-n3ncc4ccccc43)nc(N)c2Br)cn1 [Example 8, 5-bromo-2-(1H-indazol-1-yl)-N^4-[(1-methyl-1H-pyrazol-4-yl)methyl]pyrimidine-4,6-diamine]"
6,8.80,"Nc1nc(-n2ncc3ccccc32)nc(NCc2cncs2)c1Br [Example 9, 5-bromo-2-(1H-indazol-1-yl)-N^4-[(thiazol-5-yl)methyl]pyrimidine-4,6-diamine]"
7,8.54,"Cc1ncsc1CNc1nc(-n2ncc3ccccc32)nc(N)c1Br [Example 10, 5-bromo-2-(1H-indazol-1-yl)-N^4-[(4-methylthiazol-5-yl)methyl]pyrimidine-4,6-diamine]"
8,7.59,"COCCNc1nc(-n2ncc3ccccc32)nc(N)c1Br [Example 11, 5-bromo-2-(1H-indazol-1-yl)-N^4-(2-methoxyethyl)pyrimidine-4,6-diamine]"
9,8.15,"Nc1nc(-n2cc(-c3ccccn3)cn2)nc(NCc2cncs2)c1Br [Example 20, 5-bromo-2-[4-(pyridin-2-yl)-1H-pyrazol-1-yl]-N^4-[(thiazol-5-yl)methyl]pyrimidine-4,6-diamine]"
10,7.78,"Cc1ncsc1CNc1nc(-n2cc(-c3cnccn3)cn2)nc(N)c1Br [Example 29, 5-bromo-N^4-[(4-methylthiazol-5-yl)methyl]-2-[4-(pyrazin-2-yl)-1H-pyrazol-1-yl]pyrimidine-4,6-diamine]"
11,8.49,"C#CCNc1nc(-n2ncc3ccncc32)nc(N)c1Br [Example 33, 5-bromo-N^4-(prop-2-ynyl)-2-(1H-pyrazolo[3,4-c]pyridin-1-yl)pyrimidine-4,6-diamine]"
12,9.40,"Cc1ncsc1CNc1nc(-n2ncc3ccncc32)nc(N)c1Br [Example 34, 5-bromo-N^4-[(4-methylthiazol-5-yl)methyl]-2-(1H-pyrazolo[3,4-c]pyridin-1-yl)pyrimidine-4,6-diamine]"
13,8.74,"Nc1nc(-n2ncc3ccncc32)nc(NCC2CC2)c1Br [Example 35, 5-bromo-N^4-(cyclopropylmethyl)-2-(1H-pyrazolo[3,4-c]pyridin-1-yl)pyrimidine-4,6-diamine]"
14,10.22,"Nc1nc(-n2ncc3ccncc32)nc(NCc2cncs2)c1Br [Example 36, 5-bromo-2-(1H-pyrazolo[3,4-c]pyridin-1-yl)-N^4-[(thiazol-5-yl)methyl]pyrimidine-4,6-diamine]"
15,9.52,"Cc1ncsc1CNc1nc(-n2ncc3cnccc32)nc(N)c1Br [Example 39, 5-bromo-N^4-[(4-methylthiazol-5-yl)methyl]-2-(1H-pyrazolo[4,3-c]pyridin-1-yl)pyrimidine-4,6-diamine]"
16,9.22,"Cc1ncsc1CNc1nc(-n2ncc3ncccc32)nc(N)c1Br [Example 41, 5-bromo-N^4-[(4-methylthiazol-5-yl)methyl]-2-(1H-pyrazolo[4,3-b]pyridin-1-yl)pyrimidine-4,6-diamine]"
